Experimental data reported in patent US7169813B2, “4-oxo-fenretinide, administered alone and in combination with fenretinide, as preventive and therapeutic agent for cancer” (Fondazione IRCCS “Istituto Nazionale Dei Tumori”, priority 2004, dated 2007).
Values joined by “and” are separate entries in the source; they are usually repeats but may differ in a detail not shown here. Identical values can stand only once. Like-named read-outs stand apart in the source and are kept apart here.

Assays:
A2780/HPR [1] = experiment: Apoptosis induction (Cell Death Detection ELISA, DNA fragmentation); assay type: cell-based, human; details: 5 μM, 24 hr
Method: Although the mechanism of action of 4-HPR is not well understood, its tumor growth inhibitory effects have been attributed to apoptosis induction (Supino et al., Int. J. Cancer, 1996, 65:491–497). The apoptosis inducing effects of 4-oxo-4-HPR were compared with those of 4-HPR in the human ovarian carcinoma cell line A2780 and in its counterpart A2780/HPR, with induced resistance to 4-HPR. Apoptosis was evaluated by a Cell Death Detection ELISA Plus Assay Kit (Roche Diagnostic GmbH, Germany) according to the manufacturer's instructions. This assay quantitates the amount of cytoplasmic histone-associated DNA fragments which increases during apoptosis. Cells were seeded in 96-well cell culture plates and treated the day after with 5 μM 4-oxo-4-HPR or 4-HPR for 24 hr.

A2780 = experiment: Growth inhibition (sulforhodamine B assay), single agents and combination; assay type: cell-based; details: Homo sapiens, read-out: 50% Inhibitory Concentrations (IC50) at 72 h
Method: The following human ovarian carcinoma cell lines were tested: A2780 was obtained from Dr. R. F. Ozols (National Cancer Institute, Bethesda, Md., USA); IGROV-1 was obtained from Dr. J. Benard (Villejuif, France); OVCA432 was obtained from Dr. R. C. Knapp (Boston, Mass., USA); OAW42 and SKOV-3 were purchased from ATCC (Rockville, Md., USA). A2780/HPR, a 4-HPR— resistant ovarian carcinoma cell line, was obtained in our laboratory by continuous exposure of A2780 cells to increasing concentrations of 4-EPR as previously described (Appierto et al., Br. J. Cancer, 2001, 84:1528–1534; Prinetti et al., J. Biol. Chem., 2003, 278:5574–5583). Briefly, cells surviving 60 transplants in 4-HPR —containing medium (3 transplants at 1 μM, 11 transplants at 2 μM, 8 transplants at 3 μM, and 38 transplants at 5 μM) were cloned by limiting dilution. […]
For the growth inhibition assays, cells were seeded at a density of 3500 cells per well in 96 cluster tissue culture plates, and treated 24 hr after seeding with different concentrations of 4-oxo-4-HPR or 4-HPR. […] The survival of treated cells was calculated for the various drug concentrations as percentage of the survival of control cells. […]
Studies were performed to assess whether 4-oxo-4-HPR potentiates the tumor growth inhibitory effects of 4-HPR. […] The fractional survival (f) after 3 days of treatment was calculated for each experimental condition. […]

SK-N-BE = experiment: Growth inhibition (sulforhodamine B assay); assay type: cell-based, human; details: for IC50: Homo sapiens, 72 h, read-out: 50% Inhibitory Concentrations (IC50) at 72 h
Method: (§1) The following human breast tumor cell lines, obtained from Dr. R. Sutherland (Garvan Institute, Sydney, Australia) were tested: T-47D, BT-20 and MCF-7. The following human neuroblastoma cell lines, purchased from ATCC, were tested: SK-N-BE, SK-N-SH, SK-N-MC, and GI-LI-N. All cell lines were grown in monolayer, in medium containing 10% fetal bovine serum (Invitrogen) in 5% CO2 at 37° C. The medium for A2780, A2780/HPR, IGROV-1, OVCA432, SKOV-3, T-47D, BT-20, MCF-7, GI-LI-N and SK-N-BE cells was RPMI 1640 (Cambrex, Verviers, Belgium) and the medium for OAW42, SK-N-MC and SK-N-SH cells was EMEM (ATCC).
(§2) For the growth inhibition assays, cells were seeded at a density of 3500 cells per well in 96 cluster tissue culture plates, and treated 24 hr after seeding with different concentrations of 4-oxo-4-HPR or 4-HPR. 4-oxo-4-HPR was dissolved in absolute ethanol and 4-HPR (obtained from Dr. J. A. Crowell —NCI Bethesda, Md., USA) was dissolved in Me2SO. […] Control cultures received the same amount of ethanol or Me2SO as the treated cultures. 72 hr after treatment cell number was estimated by using the sulforhodamine B assay according to Monks et al., (J. Natl. Cancer, 1991, 11: 757–766). The survival of treated cells was calculated for the various drug concentrations as percentage of the survival of control cells. The antiproliferative activity of 4-oxo-4-HPR and 4-HPR in each cell line, was tested in three separate experiments and the average values ±SD are reported in FIGS. 2, 3, and 4.

GI-LI-N = experiment: Growth inhibition (sulforhodamine B assay); assay type: cell-based, human; details: for IC50: Homo sapiens, 72 h, read-out: 50% Inhibitory Concentrations (IC50) at 72 h
Method: as §1, §2

OVCA432 = experiment: Growth inhibition (sulforhodamine B assay), single agents and combination; assay type: cell-based, human
Method: (§3) The following human ovarian carcinoma cell lines were tested: A2780 was obtained from Dr. R. F. Ozols (National Cancer Institute, Bethesda, Md., USA); IGROV-1 was obtained from Dr. J. Benard (Villejuif, France); OVCA432 was obtained from Dr. R. C. Knapp (Boston, Mass., USA); OAW42 and SKOV-3 were purchased from ATCC (Rockville, Md., USA). A2780/HPR, a 4-HPR— resistant ovarian carcinoma cell line, was obtained in our laboratory by continuous exposure of A2780 cells to increasing concentrations of 4-EPR as previously described (Appierto et al., Br. J. Cancer, 2001, 84:1528–1534; Prinetti et al., J. Biol. Chem., 2003, 278:5574–5583). Briefly, cells surviving 60 transplants in 4-HPR —containing medium (3 transplants at 1 μM, 11 transplants at 2 μM, 8 transplants at 3 μM, and 38 transplants at 5 μM) were cloned by limiting dilution. […] Therefore, A2780/HPR cells were continuously maintained in 5 μM 4-HPR and seeded without 4-HPR in all the experiments performed to test their sensitivity to 4-oxo-4-HPR.
as §1, §2
(§4) The antiproliferative effect of the combination of the two drugs, administered at one single dose, was also tested in other ovarian carcinoma cell lines and in breast tumor cell lines. The type of interaction between 4-HPR and 4-oxo-4-HPR was assessed by the method of Drevinko et al., as described in Cancer Biochem. Biophys., 1976, 1:187–195. For this evaluation the drugs were assumed to provide independent effects. The combination index (CI) was calculated as follows: survival fraction (SF) of the combination of 4-HPR+4-oxo-4-HPR divided by (SF 4-HPR×SF 4-oxo-4-HPR). The results for CI are defined as follows: CI=1 indicates an additive effect, CI<1 indicates a supra-additive effect and CI>1 indicates a sub-additive effect.

IGROV-1 = experiment: as above; assay type: cell-based, human
Method: as §3, §1, §2, §4

A2780/HPR [2] = experiment: as above; assay type: cell-based, human; details: for Survival (% control cells): single experiments
Method: as §3, §1, §2, §4

SW626 = experiment: Antiproliferative effect, single agents and combination; assay type: cell-based, human; details: single agent 1 μM, 72 h, single experiments
Method: as §2
as §4, with “For this evaluation the drugs were assumed to provide independent effects.” left out, “The results for CI are defined as follows: CI=1 indicates an additive effect, CI<1 indicates a supra-additive effect and CI>1 indicates a sub-additive effect.” left out

[3] = OVCA432; single agent 1 μM; 72 h; single experiments
[4] = IGROV-1; single agent 1 μM; 72 h; single experiments

SMILES	induction of apoptosis (DNA fragmentation, fold versus control cells) (A2780/HPR [1])	IC50 (A2780; A2780, 72 h, calculated from graphs)	IC50 (SK-N-BE; SK-N-BE)	IC50 (GI-LI-N; GI-LI-N)	IC50 (OVCA432; Homo sapiens; OVCA432; 72 h; read-out: 50% Inhibitory Concentrations (IC50) at 72 h)	Survival (% control cells) (OVCA432; [3])	IC50 (IGROV-1; Homo sapiens; IGROV-1; 72 h; read-out: 50% Inhibitory Concentrations (IC50) at 72 h)	Survival (% control cells) (IGROV-1; [4])	Survival (% control cells) (A2780/HPR [2]; A2780/HPR, 4-HPR 5 μM, 72 h)	IC50 (A2780/HPR [2]; Homo sapiens, A2780/HPR (4-HPR-resistant), 72 h, read-out: 50% Inhibitory Concentrations (IC50) at 72 h)	Survival (% control cells) (SW626)	IC50 (A2780; A2780, 72 h)	IC50 (SK-N-BE)	cell sensitivity (FIG. 4), compared with 4-HPR, in words (SK-N-BE; SK-N-BE, 72 hr)	cell sensitivity (FIG. 4), compared with 4-HPR, in words (GI-LI-N; GI-LI-N, 72 hr)	IC50 (GI-LI-N)	IC50 (OVCA432; Homo sapiens, OVCA432, 72 h, read-out: 50% Inhibitory Concentrations (IC50) at 72 h)	IC50 (IGROV-1; Homo sapiens, IGROV-1, 72 h, read-out: 50% Inhibitory Concentrations (IC50) at 72 h)	Survival (% control cells) (A2780/HPR [2]; A2780/HPR, 4-oxo-4-HPR 0.3 μM, 72 h)	tumor cell survival (FIG. 2), in words (A2780/HPR [2]; A2780/HPR, 72 hr, 0.3 to 10 μM)
CC1=C(/C=C/C(C)=C/C=C/C(C)=C/C(=O)Nc2ccc(O)cc2)C(C)(C)CCC1 [4-HPR, N-(4-hydroxyphenyl)retinamide, reference compound]	had no effect	1500 nM	5000 nM	700 nM	8000 nM	115 % control cells and 105 % control cells	5000 nM	97 % control cells and 91 % control cells	81 % control cells and 89 % control cells	8000 nM	96 % control cells and 98 % control cells									
CC1=C(/C=C/C(C)=C/C=C/C(C)=C/C(=O)Nc2ccc(O)cc2)C(C)(C)CCC1=O [4-oxo-4-HPR, 4-oxo-N-(4-hydroxyphenyl)retinamide]	induced apoptosis					98 % control cells and 102 % control cells		96 % control cells and 76 % control cells			90 % control cells and 98 % control cells	600 nM	1000 nM	more sensitive to 4-oxo-HPR than to 4-HPR	equally sensitive	600 nM	2500 nM	2000 nM	96 % control cells and 84 % control cells and 71 % control cells	highly effective
